Values joined by “and” are separate entries in the source; they are usually repeats but may differ in a detail not shown here. Equal values may be shown once. Active and inactive are the calls of the source. The calls were made as follows: active = viability on the fitted dose curve at most 10% of control; inactive = the rest.
Tested on: 885512-296-R-J2-PDC complex spheroid viability
Assay: Anticancer human tumor 885512-296-R-J2-PDC patient-derived breast carcinoma cell line growth inhibition
Settings: for viability, T/C: stronger effect = lower value
Excerpt: Multicellular complex tumor spheroid response to LSD1 Inhibitor Iadademstat in combination with a variety of drugs and investigational agents in selected tumor cell lines
The current study was undertaken to assess response to LSD1 inhibitors in combination with standard-of-care drugs and investigational agents in solid tumor complex spheroid models as well as in the K-562 leukemia. Complex spheroids include a stromal component modeled by human endothelial cells (HUVEC) and fibroblasts modeled by human mesenchymal stem cells (MSCs). The concentration ranges selected for each drug and investigational agent were based upon clinically achievable concentrations if the clinical Cmax of the agent was known.
Compounds. The drugs and investigational agents used in this study are listed on Table 1. All of the agents used, including staurosporine (NSC755774) and gemcitabine (NSC613327), were obtained from the Developmental Therapeutics Program, NCI. FDA-approved anticancer drugs are available from the NCI at http://dtp.nci.nih.gov/branches/dscb/oncology_drugset_explanation.html. Drugs and investigational agents were >95% pure by proton nuclear magnetic resonance (NMR) and liquid chromatography/mass spectrometry (LC/MS). Stock solutions were prepared at 400x in DMSO, stored at -70 degrees C, and diluted in fresh medium prior to their use. The final concentration of DMSO in cell culture wells never exceeded 0.25% (v/v). The FDA-approved anticancer drug set is available from the Developmental Therapeutics Program at https://dtp.cancer.gov/organization/dscb/obtaining/available_plates.htm. All drugs and investigational agents were tested over a range starting from a high concentration at or near the clinical Cmax and decreasing in half-log increments. If the clinical Cmax for an agent had not been determined, the highest concentration tested was 10 microM.
Cell Lines. The patient-derived cancer cell (PDC) lines: 292921-168-R-J2-PDC, K24384-001-R-PDC, and 521955-158-R2-J5-PDC pancreatic carcinomas, 556581-035-R-J1 ovarian carcinoma, 324938-238-R-J1-PDC, 855422-203-R-J1-PDC and 883617-216-R-J1-PDC urothelial bladder carcinomas, 743489-274-T-PDC renal cell carcinoma, 138582-R-J1 Merkel cell tumor, K60290-347-R-J1 and K57222-313-R-J1-PDC glioblastomas, 653999-131-R-J2-PDC, LG0703-F948-PDC, and 349418-098-R-PDC non-small cell lung carcinomas, 885512-296-R-J2-PDC, 171881-019-R-J1-PDC breast carcinomas and 186277-243-T-J2-PDC and 233499-124-R-J2-PDC colon carcinomas were obtained from the NCI Patient-Derived Models Repository (PDMR, https://pdmr.cancer.gov). The established cell lines NCI/ADR-RES (RRID:CVCL_14520 and OVCAR-5 (RRID:CVCL_1628) ovarian carcinomas, 786-O (RRID:CVCL_1051) and A498 (RRID:CVCL_A498) renal cell carcinoma, NCI-H211 (ATCC, cat. CRL-5824; RRID:CVCL_1529), NCI-H196 (ATCC, cat. CRL-5823, RRID:CVCL_1509), SW 1271 (ATCC, cat. CRL-2177, RRID:CVCL_1716) and NCI-H1876 (ATCC, cat. CRL-5902, RRID:CVCL_1503) small cell lung carcinomas, MDA-MB-231 (RRID:CVCL_0062) and MDA-MB-468 (RRID:CVCL_0419)breast carcinomas (10-12). Pooled donor human umbilical vein endothelial cells (HUVEC, Lonza, cat. CC-2519) and human mesenchymal stem cells (hMSC, Lonza, cat. PT-2501) were purchased from Lonza (Walkersville, MD).
Cell Culture. All cells were maintained in an incubator at 37 degrees C and 5% CO2 with 95% humidity. The PDC lines were cultured according to standard operating procedures established by the NCI PDMR (https://pdmr.cancer.gov). Briefly all PDCs were thawed and cultured in Matrigel-coated flasks prepared with a working solution of 1X Ham's F-12 nutrient mix, without supplementation (Invitrogen, Waltham, MA, cat. 11765054), 100 U/mL penicillin-streptomycin (Invitrogen, cat. 15140122), and 2.5% Matrigel (Corning Inc., Corning, NY, cat. 354248) for the first three passages. […]
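For IC50 in this document: spheroids exposed to agents for 7 days before viability read.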
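For viability, T/C in this document: spheroids exposed to agents for 7 days before viability read.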

| Structure (SMILES) | viability, T/C (compound 0.00316 µM) | viability, T/C (compound 0.01 µM) | viability, T/C (compound 0.0316 µM) | viability, T/C (compound 0.1 µM) | IC50 (curve of compound) | viability, T/C (compound 0.316 µM) | viability, T/C (compound 1 µM) | viability, T/C (compound 0.00949 µM) | viability, T/C (compound 0.03 µM) | viability, T/C (compound 0.0949 µM) | viability, T/C (compound 0.3 µM) | further results |
| --- | --- | --- | --- | --- | --- | --- | --- | --- | --- | --- | --- | --- |
| CC(C)CC(NC(=O)C(Cc1ccccc1)NC(=O)c1cnccn1)B(O)O (stereo not given) | 2.61% and 0.22% | 4.07% and 0.18% | 0.12% and 0.1% | 3.52% and 0.14% | 0.879 nM and < 0.316 nM | – | – | – | – | – | – | viability, T/C (compound 0.000316 µM): 99.8% and 17.9% |
| CC(C)CC(NC(=O)CNC(=O)c1cc(Cl)ccc1Cl)B1OC(=O)CC(CC(=O)O)(C(=O)O)O1 (stereo not given) | 96.3% and 68.9% | 22.7% and 9.34% | 8.52% and 2.1% | 4.36% and 0.41% | 6.45 nM and 4.56 nM | – | – | – | – | – | – | viability, T/C (compound 0.000316 µM): 102% and 89.6%; viability, T/C (compound 0.001 µM): 84.1% and 89.2% |
| CC(C)c1c(-c2ccccc2)nc2c(C#N)c[nH]n2c1=O | – | – | 90.7% and 86% | 106% and 89.1% | 4130 nM and > 10000 nM | 86.7% and 80.9% | 99.3% and 81% | – | – | – | – | viability, T/C (compound 3.16 µM): 92.9% and 87.5%; outcome (compound 10 µM): active; viability, T/C (compound 10 µM): 57% |
| CC1(C)CCC(CN2CCN(c3ccc(C(=O)NS(=O)(=O)c4ccc(NCC5CCOCC5)c([N+](=O)[O-])c4)c(Oc4cnc5[nH]ccc5c4)c3)CC2)=C(c2ccc(Cl)cc2)C1 | – | – | 121% and 95.1% | 109% and 91% | 3310 nM and 1320 nM | 89.3% and 82% | 72.6% and 61.4% | – | – | – | – | viability, T/C (compound 3.16 µM): 63.1% and 19.3%; viability, T/C (compound 10 µM): 10.2% and 0.17% |
| CC1COCCN1c1cc(-c2ccnn2C)c2ccnc(-c3ccn[nH]3)c2n1 (stereo not given) | – | 6.26% and 3.04% | 2.66% and 1.79% | 2.1% and 2.15% | < 3.16 nM | 4.57% and 2.49% | 11.1% and 3.37% | – | – | – | – | – |
| CC1COCCN1c1cc(C2(S(C)(=N)=O)CC2)nc(-c2ccnc3[nH]ccc23)n1 (stereo not given) | – | – | 89.7% and 84.5% | 69.7% and 90.6% | 151 nM and 317 nM | 14.4% and 49.3% | 7.6% and 9.02% | – | – | – | – | viability, T/C (compound 3.16 µM): 7.26% and 2.77%; viability, T/C (compound 10 µM): 7.13% and 1.85% |
| CCN(c1cc(-c2ccc(CN3CCOCC3)cc2)cc(C(=O)NCc2c(C)cc(C)[nH]c2=O)c1C)C1CCOCC1 | – | – | – | – | 1700 nM and 188 nM | – | – | 92.3% and 81.8% | 80.2% and 89.8% | 74.8% and 68% | 60.2% and 35.7% | viability, T/C (compound 0.949 µM): 76.2% and 18.2%; viability, T/C (compound 3 µM): 25.1% and 7.11% |
| CC[C@@]1(O)C(=O)OCc2c1cc1n(c2=O)Cc2cc3c(CN(C)C)c(O)ccc3nc2-1 | 8.16% and 3.47% | 7.89% and 3.58% | 9.39% and 2.75% | 9.51% and 1.92% | 0.41 nM and 0.678 nM | – | – | – | – | – | – | viability, T/C (compound 0.000316 µM): 59.8% and 76.7%; viability, T/C (compound 0.001 µM): 16.6% and 36.4% |
| CCc1c2c(nc3ccc(O)cc13)-c1cc3c(c(=O)n1C2)COC(=O)[C@]3(O)CC | – | – | – | – | < 0.949 nM | – | – | 4.28% and 1.07% | 6.78% and 1.14% | 12.3% and 1.2% | 3.96% and 1.27% | viability, T/C (compound 0.000949 µM): 7.33% and 2.09%; viability, T/C (compound 0.003 µM): 4.69% and 2% |
| COc1cc(C2c3cc4c(cc3C(OC3OC5COC(C)OC5C(O)C3O)C3COC(=O)C23)OCO4)cc(OC)c1O (stereo not given) | – | – | – | – | 50.5 nM and 47 nM | – | – | 86.4% and 69.3% | 64.5% and 70.5% | 32.7% and 18.8% | 10.8% and 4.99% | viability, T/C (compound 0.949 µM): 6.14% and 3.49%; viability, T/C (compound 3 µM): 7.43% and 2.68% |
| COc1cc(Nc2ncc3c(n2)-c2ccc(Cl)cc2C(c2c(F)cccc2OC)=NC3)ccc1C(=O)O | 63.8% and 24.6% | 32.3% and 28.3% | 23% and 22.3% | 31.3% and 21% | 5.39 nM and < 3.16 nM | 14.5% and 18.3% | 12% and 14.3% | – | – | – | – | – |
| COc1ccc([C@@H](O)c2cc(-c3ncnc4cc(N5CCOCC5)ccc34)c(F)cc2Cl)nn1 | – | – | 83.8% and 95.7% | 96.8% and 82.8% | 1080 nM and 980 nM | 81.9% and 61.3% | 52.8% and 50.3% | – | – | – | – | viability, T/C (compound 3.16 µM): 16.6% and 37.4%; viability, T/C (compound 10 µM): 10.3% and 9.6% |
| Cn1ncnc1C1c2n[nH]c(=O)c3cc(F)cc(c23)NC1c1ccc(F)cc1 (stereo not given) | 81.5% and 89.5% | 58.5% and 70.7% | 36.5% and 55.6% | 15.5% and 29.8% | 15.9 nM and 38.4 nM | – | – | – | – | – | – | viability, T/C (compound 0.000316 µM): 113% and 78.9%; viability, T/C (compound 0.001 µM): 96.4% and 90.1% |
| NC1CC1c1ccc(-c2cccc(O)c2)cc1 (stereo not given) | – | – | – | 133% | – | – | – | – | – | – | – | IC50 (compound alone, run of 02/01/2022): > 10000 nM |
| NC1CCC(NC2CC2c2ccccc2)CC1 (stereo not given) | – | – | – | – | – | 121% (2×) and 120% | – | – | – | – | – | IC50 (compound alone, run of 01/24/2022): > 10000 nM |
| NS(=O)(=O)OCC1CC(n2ccc3c(NC4CCc5ccccc54)ncnc32)CC1O (stereo not given) | – | – | – | – | < 9.49 nM | – | – | 19.9% and 20.9% | 8.83% and 6.03% | 7.38% and 2.26% | 4.17% and 1.57% | viability, T/C (compound 0.949 µM): 8.44% and 0.8%; viability, T/C (compound 3 µM): 6.16% and 0.67% |
| Nc1ccccc1NC(=O)c1ccc(CNC(=O)OCc2cccnc2)cc1 | – | – | – | – | 62 nM and 25.2 nM | – | – | 92.7% and 64.7% | 63.2% and 46.1% | 44.3% and 33.1% | 22.8% and 16.8% | viability, T/C (compound 0.949 µM): 12.9% and 6.76%; viability, T/C (compound 3 µM): 10.3% and 0.3% |
| Nc1ccn(C2OC(CO)C(O)C2(F)F)c(=O)n1 (stereo not given) | – | – | – | – | < 0.949 nM | – | – | 5.82% and 2.16% | 8.91% and 2.45% | 10.2% and 2.79% | 8.07% and 3.31% | viability, T/C (compound 0.000949 µM): 5.28% and 20.8%; viability, T/C (compound 0.003 µM): 8.05% and 3% |
| Nc1ncn(C2CC(O)C(CO)O2)c(=O)n1 (stereo not given) | 74.3% and 93.4% | 60.7% and 84.3% | 40.7% and 68.5% | 28.2% and 37.6% | 18.6 nM and 63.9 nM | 23.4% and 23.6% | 11.6% and 15.8% | – | – | – | – | – |
| Nc1ncn(C2CC(O)C(CO)S2)c(=O)n1 (stereo not given) | – | – | – | – | 4.06 nM and 4.91 nM | – | – | 39.5% and 33.1% | 17.3% and 19.7% | 10.9% and 9.65% | 12% and 4.63% | viability, T/C (compound 0.000949 µM): 81.4% and 90.5%; viability, T/C (compound 0.003 µM): 52.7% and 62.2% |
| O=C(C=Cc1cccc(S(=O)(=O)Nc2ccccc2)c1)NO | – | – | – | – | 45.7 nM and 26 nM | – | – | 70% and 91.1% | 60.1% and 44% | 32.8% and 28.1% | 20.3% and 16.4% | viability, T/C (compound 0.949 µM): 13.7% and 2.92%; viability, T/C (compound 3 µM): 13.9% and 72.2% |
| O=C(C=Cn1cnc(-c2cc(C(F)(F)F)cc(C(F)(F)F)c2)n1)NNc1cnccn1 | 31.1% and 23.7% | 5.75% and 8.41% | 3.88% and 2.23% | 6.09% and 0.68% | < 3.16 nM | 7.95% and 0.57% | 6.27% and 0.53% | – | – | – | – | – |
| O=C(c1cc(Cc2n[nH]c(=O)c3ccccc23)ccc1F)N1CCN(C(=O)C2CC2)CC1 | – | – | 81.2% and 95.5% | 92.8% and 89.7% | 395 nM and 813 nM | 57.2% and 74.8% | 17.2% and 46.9% | – | – | – | – | viability, T/C (compound 3.16 µM): 10.2% and 11.8%; viability, T/C (compound 10 µM): 7.83% and 6.41% |

From PubChem BioAssay AID1918946 (Molecular Pharmacology Branch, DTP, NCI, 2023)
